One test addresses T1, Mouse α-FXIIa (Mus musculus, UniProt Q80YC5).
T1 construct: Mouse α-FXIIa; purchased Molecular Innovations MFXIIA
T1 sequence (Q80YC5 355-597 limits assumed): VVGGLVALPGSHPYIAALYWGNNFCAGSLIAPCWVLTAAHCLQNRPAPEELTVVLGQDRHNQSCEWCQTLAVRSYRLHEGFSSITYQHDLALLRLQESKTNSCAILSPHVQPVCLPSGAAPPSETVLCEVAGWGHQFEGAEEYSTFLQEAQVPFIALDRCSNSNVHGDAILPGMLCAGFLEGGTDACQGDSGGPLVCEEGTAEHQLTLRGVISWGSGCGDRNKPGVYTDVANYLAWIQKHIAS
T1 sequence (Q80YC5 20-354 limits assumed): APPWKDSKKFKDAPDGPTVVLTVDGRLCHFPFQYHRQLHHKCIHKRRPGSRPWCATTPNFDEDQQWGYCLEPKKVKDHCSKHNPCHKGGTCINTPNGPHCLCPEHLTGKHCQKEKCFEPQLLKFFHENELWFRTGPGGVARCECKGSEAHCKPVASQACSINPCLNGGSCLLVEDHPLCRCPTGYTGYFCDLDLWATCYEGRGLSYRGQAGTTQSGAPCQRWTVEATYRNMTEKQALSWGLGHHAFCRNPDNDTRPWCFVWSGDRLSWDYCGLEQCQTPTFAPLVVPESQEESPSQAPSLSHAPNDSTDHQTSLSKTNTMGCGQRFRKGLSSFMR
In words: FXIIa protease inhibition assay with fluorogenic substrate Boc-Gln-Gly-Arg-AMC. Type of test: biochemical. The settings on record: purified peptide without coumarin label; read-out: Ki mouse FXIIa. As to the method: (§1) In order to test the inhibitory activity of peptides without prior purification, we developed the following method. […] After solid-phase peptide synthesis, cleavage, and ether precipitation, the peptides were chemically cyclized and their Ki values were determined in a FXIIa activity assay using a fluorogenic substrate.
(§2) Protease inhibition assays
(§3) The inhibitory activity of peptides was determined by measuring the residual protease activity with a fluorogenic substrate. The assay was performed in buffer containing 10 mM Tris-Cl, pH […]
(§4) 1% (v/v) DMSO in a volume of 150 µl. FXIIa activity was measured with the fluorogenic substrate Boc-Gln-Gly-Arg-AMC (Bachem) at a final concentration of 50 µM. Mouse α-FXIIa (Molecular Innovations cat # MFXIIA) and human β-FXIIa (Molecular Innovations cat # HFXIIAB) were used at final concentrations of 0.4 nM. The reaction was pipetted as follows: 50 µl of bicyclic peptide in assay buffer were added to 50 µl of FXIIa in assay buffer and incubated for 10 minutes at 25°C before 50 µl of 150 µM fluorogenic substrate in assay buffer were added to measure the residual protease activity with an Infinite M200Pro fluorescence plate reader (excitation at 368 nm, emission at 467 nm; Tecan) for a period of 30 minutes with a read every minute at 25°C. The Tecan software i-control (version 1.1) was used for data analysis. Stock solutions of 1 mM bicyclic peptide were prepared by either dissolving the unpurified cyclization reaction with water or by dissolving purified and lyophilized peptide in water. The bicyclic peptides were serially diluted two-fold using assay buffer. Sigmoidal curves were fitted to the data using the following dose response equation (1), wherein x = peptide concentration, y = % protease activity, and p = Hill slope. IC50 values were derived from the fitted curve.
(§5) The inhibition constants (Ki) were calculated according to the equation of Cheng and Prusoff, Ki = IC50/(1+([S]0/Km), wherein IC50 is the functional strength of the inhibitor, [S]0 is the total substrate concentration, and Km is the Michaelis-Menten constant. […]
(§6) the substrate Boc-Gln-Gly-Arg-AMC. […]

The target of another test is T2, human β-FXIIa (Homo sapiens, UniProt P00748).
T2 construct: human β-FXIIa (Molecular Innovations cat #); purchased Molecular Innovations HFXIIAB; host or cells: human blood
The test is described as above. In kind it is biochemical. As to the method:
as §1, §2, §3, §4, §5, §6

Where [1] appears, read: purified peptide without coumarin label, read-out: Ki human FXIIa.

Molecules are shown by their SMILES. Several values for one entry are separate records, joined by “and”; a condition that tells them apart may be missing. Equal entries are not always repeated. Where two headings read alike, the source gives them in different places. Starred links: 1 amine or outer side, 2 acyl side, 3 side chain; linkers in the order of their positions; H or OH if unused. Positions of bridges follow the written chain, without caps; N, C: chain ends. Non-standard residues stand in square brackets, D forms with d. Residues, ends and D or L forms follow the SMILES beside them. TATA = O=C(CC[*:1])N1CN(C(=O)CC[*:2])CN(C(=O)CC[*:3])C1; Phe(4-F) = N[C@@H](Cc1ccc(F)cc1)C(=O)O; β3hR = N=C(N)NCCC[C@H](N)CC(=O)O

T2 sequence (P00748 373-615 limits assumed, other chains not shown): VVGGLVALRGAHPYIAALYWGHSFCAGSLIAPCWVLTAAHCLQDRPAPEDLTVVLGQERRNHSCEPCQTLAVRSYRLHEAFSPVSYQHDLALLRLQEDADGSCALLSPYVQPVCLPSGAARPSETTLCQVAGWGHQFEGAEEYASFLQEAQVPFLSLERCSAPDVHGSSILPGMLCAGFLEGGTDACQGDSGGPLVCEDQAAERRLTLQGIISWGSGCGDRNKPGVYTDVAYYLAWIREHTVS

On to `CC(C)C[C@@H]1NC(=O)[C@H](CCC(N)=O)NC(=O)[C@H](CCCNC(=N)N)NC(=O)[C@@H]2CSCCC(=O)N3CN(CN(C3)C(=O)CCSC[C@H](NC(=O)[C@@H](CO)NC(=O)[C@H](N)CCCNC(=N)N)C(=O)N[C@@H](Cc3ccc(F)cc3)C(=O)N[C@@H](CCCNC(=N)N)C(=O)N[C@@H](CC(C)C)C(=O)N3CCC[C@H]3C(=O)N2)C(=O)CCSC[C@@H](C(=O)N[C@@H](CCCNC(=N)N)C(N)=O)NC(=O)C[C@H](CCCNC(=N)N)NC1=O` [Arg8His reverted] (H-[dR][dS]C[Phe(4-F)]RLPCRQL[β3hR]CR-NH2; linker 3-8-13 via TATA), for which the Ki (commonly the equilibrium dissociation constant of an inhibitor or competing ligand from its target) at Mouse α-FXIIa worked out at 0.91 ± 0.04 nM; on human β-FXIIa (setting [1]), 0.31 ± 0.02 nM.

Take `CC(C)C[C@@H]1NC(=O)[C@H](CCC(N)=O)NC(=O)[C@H](CCCNC(=N)N)NC(=O)[C@@H]2CSCCC(=O)N3CN(CN(C3)C(=O)CCSC[C@H](NC(=O)[C@@H](N)CCCNC(=N)N)C(=O)N[C@@H](Cc3ccccc3)C(=O)N[C@@H](CCCNC(=N)N)C(=O)N[C@@H](CC(C)C)C(=O)N3CCC[C@H]3C(=O)N2)C(=O)CCSC[C@@H](C(=O)N[C@@H](CCCNC(=N)N)C(N)=O)NC(=O)C[C@H](CCCNC(=N)N)NC1=O` [FXII700]: the “Residual activity of human FXIIa” value at human β-FXIIa (inhibitor 0.0976562 nM, 97.66 pM) is 91.4189%; on human β-FXIIa (inhibitor 0.195312 nM, 0.000195312 µM) it was 81.1824%; at human β-FXIIa (inhibitor 0.390625 nM, 0.000390625 µM), 72.286%; on human β-FXIIa (inhibitor 0.78125 nM, 0.00078125 µM), 58.8964%; at human β-FXIIa (inhibitor 1.5625 nM, 0.0015625 µM) it was 43.9302%; at human β-FXIIa (inhibitor 3.125 nM, 0.003125 µM) it was 29.5158% and 36.4925%. Further, the “Residual activity of human FXIIa” value on human β-FXIIa (inhibitor 6.25 nM, 0.00625 µM) was 18.0743% and 21.4703%; on human β-FXIIa (inhibitor 12.5 nM, 0.0125 µM) it was 10.9718% and 11.488%; on human β-FXIIa (inhibitor 50 nM, 0.05 µM), 4.39% and 3.29%; at human β-FXIIa (inhibitor 100 nM, 0.1 µM), 1.025% and 3.134% and 1.703%. The remaining activity at 97.66 pM on human β-FXIIa (inhibitor 0.0976562 nM, read-out: Residual activity of human FXIIa) turned out to be 93.2%. For the same molecule, the remaining activity at 0.000195312 µM on human β-FXIIa (inhibitor 0.195312 nM, read-out: Residual activity of human FXIIa) stood at 90.3%. The remaining activity at 0.000390625 µM on human β-FXIIa (inhibitor 0.390625 nM, read-out: Residual activity of human FXIIa) worked out at 82.1%. The remaining activity at 0.00078125 µM on human β-FXIIa (inhibitor 0.78125 nM, read-out: Residual activity of human FXIIa) was determined as 69.4%. In addition, the remaining activity at 0.0015625 µM at human β-FXIIa (inhibitor 1.5625 nM, read-out: Residual activity of human FXIIa) was 53.9%. Besides, the remaining activity at 0.003125 µM on human β-FXIIa (inhibitor 3.125 nM, read-out: Residual activity of human FXIIa) came out at 34.3%. Also, the remaining activity at 0.00625 µM on human β-FXIIa (inhibitor 6.25 nM, read-out: Residual activity of human FXIIa) worked out at 20.1%. Besides, the remaining activity at 0.0125 µM on human β-FXIIa (inhibitor 12.5 nM, read-out: Residual activity of human FXIIa) worked out at 10.6%. Moreover, the remaining activity at […] at human β-FXIIa (inhibitor 25 nM, read-out: Residual activity of human FXIIa) was 4.82%. Moreover, the remaining activity at 0.05 µM on human β-FXIIa (inhibitor 50 nM, read-out: Residual activity of human FXIIa) turned out to be 2.6%. Besides, at human β-FXIIa (inhibitor 200 nM, read-out: Residual activity of human FXIIa), the remaining activity at 0.2 µM is 0.731%. Further, at human β-FXIIa (inhibitor 400 nM, read-out: Residual activity of human FXIIa), the remaining activity at 0.4 µM came to 0.3%. Also, at human β-FXIIa (setting [1]), the Ki came to 1.5 ± 0.1 nM.

Regarding `CC(C)C[C@@H]1NC(=O)[C@H](CCC(N)=O)NC(=O)[C@H](CCCNC(=N)N)NC(=O)[C@@H]2CSCCC(=O)N3CN(CN(C3)C(=O)CCSC[C@H](NC(=O)[C@@H](N)CCCNC(=N)N)C(=O)N[C@@H](Cc3ccc(F)cc3)C(=O)N[C@@H](CCCNC(=N)N)C(=O)N[C@@H](CC(C)C)C(=O)N3CCC[C@H]3C(=O)N2)C(=O)CCSC[C@@H](C(=O)N[C@@H](CCCNC(=N)N)C(N)=O)NC(=O)[C@H](CCCNC(=N)N)NC1=O` [FXII800], the “Residual activity of human FXIIa” value at human β-FXIIa (inhibitor 0.12207 nM, 0.00012207 µM) was 86.6295% and 91.1755%; on human β-FXIIa (inhibitor 0.244141 nM, 0.000244141 µM), 82.4999% and 82.653%; on human β-FXIIa (inhibitor 0.488281 nM, 0.000488281 µM) it was 69.0437% and 70.79%; at human β-FXIIa (inhibitor 1.95312 nM, 0.00195312 µM), 33.1082% and 35.3323%; at human β-FXIIa (inhibitor 3.90625 nM, 0.00390625 µM) it was 19.4631% and 21.6747%; on human β-FXIIa (inhibitor 7.8125 nM, 0.0078125 µM) it was 10.6116% and 10.9279%. Besides, the “Residual activity of human FXIIa” value is 6.273% and 6.117% at human β-FXIIa (inhibitor 15.625 nM, 0.015625 µM); 3.754% and 3.106% at human β-FXIIa (inhibitor 31.25 nM, 0.03125 µM); 2.455% and 1.836% on human β-FXIIa (inhibitor 62.5 nM, 0.0625 µM); 1.461% and 1.1009% on human β-FXIIa (inhibitor 125 nM, 0.125 µM); 50.5477% and 54.5303% on human β-FXIIa (inhibitor 0.976562 / 0.976563 nM, 0.000976563 µM). On human β-FXIIa (inhibitor 0.12207 nM, read-out: Residual activity of human FXIIa), the remaining activity at 0.00012207 µM is 94.2%. Moreover, at human β-FXIIa (inhibitor 0.244141 nM, read-out: Residual activity of human FXIIa), the remaining activity at 0.000244141 µM was found to be 87%. Besides, the remaining activity at 0.000488281 µM at human β-FXIIa (inhibitor 0.488281 nM, read-out: Residual activity of human FXIIa) was determined as 70.3%. Also, the remaining activity at 0.00195312 µM on human β-FXIIa (inhibitor 1.95312 nM, read-out: Residual activity of human FXIIa) came to 31.8%. The remaining activity at 0.00390625 µM at human β-FXIIa (inhibitor 3.90625 nM, read-out: Residual activity of human FXIIa) amounted to 16.9%. The remaining activity at 0.0078125 µM at human β-FXIIa (inhibitor 7.8125 nM, read-out: Residual activity of human FXIIa) was found to be 9.32%. Further, the remaining activity at 0.015625 µM on human β-FXIIa (inhibitor 15.625 nM, read-out: Residual activity of human FXIIa) was 6.19%. Further, the remaining activity at 0.03125 µM on human β-FXIIa (inhibitor 31.25 nM, read-out: Residual activity of human FXIIa) was found to be 2.96%. In addition, the remaining activity at 0.0625 µM on human β-FXIIa (inhibitor 62.5 nM, read-out: Residual activity of human FXIIa) was determined as 1.51%. The remaining activity at 0.125 µM at human β-FXIIa (inhibitor 125 nM, read-out: Residual activity of human FXIIa) came to 1.19%. Moreover, the remaining activity at 0.000976563 µM on human β-FXIIa (inhibitor 0.976562 / 0.976563 nM, read-out: Residual activity of human FXIIa) was 50.5%. The Ki on human β-FXIIa (setting [1]) was 0.84 ± 0.03 nM.

As for `CC(C)C[C@@H]1NC(=O)[C@H](CCC(N)=O)NC(=O)[C@H](Cc2c[nH]cn2)NC(=O)[C@@H]2CSCCC(=O)N3CN(CN(C3)C(=O)CCSC[C@H](NC(=O)[C@@H](CO)NC(=O)[C@H](N)CCCNC(=N)N)C(=O)N[C@@H](Cc3ccccc3)C(=O)N[C@@H](C)C(=O)N[C@@H](CC(C)C)C(=O)N3CCC[C@H]3C(=O)N2)C(=O)CCSC[C@@H](C(N)=O)NC(=O)[C@H](CCCNC(=N)N)NC1=O` [FXII901] (HELM PEPTIDE1{[dR].[dS].C.F.A.L.P.C.H.Q.L.R.C.[am]}|CHEM1{[O=C(CC[*:1])N1CN(C(=O)CC[*:2])CN(C(=O)CC[*:3])C1]}$PEPTIDE1,CHEM1,3:R3-1:R1|PEPTIDE1,CHEM1,8:R3-1:R2|PEPTIDE1,CHEM1,13:R3-1:R3$$$V2.0), the Ki on human β-FXIIa (negative control peptide, read-out: Ki FXIIa) came to 39000 ± 14000 nM.

The values above are taken from article PMC7403315, “Cyclic peptide FXII inhibitor provides safe anticoagulation in a thrombosis model and in artificial lungs” (Nature Communications, 2020).
